Experimental data taken from paper PMC10459118, “The Effect of Plastic-Related Compounds on Transcriptome-Wide Gene Expression on CYP2C19-Overexpressing HepG2 Cells” (Molecules, 2023).

Key:
in vitro = conditions: human
Protocol: (§1) To investigate the effects of the in silico identified compounds on cell viability, we used CYP2C19-overexpressing HepG2 cells (Figure 3). Different concentrations (ranging from 0.003 to 100 μM) were tested.
(§2) Figure 3 Resazurin assay of cytochrome P450 2C19-overexpressing HepG2 cells treated with different concentrations of the six selected compounds. All experiments were performed in three replicate measurements of mean ± SD.
(§3) CYP2C19-overexpressing HepG2 cells were originated as previously described. Cells were grown in DMEM medium (DMEM, 31966021, Gibco™, Billings, MT, USA) at 37 °C and 5% CO2 in a humidified incubator. DMEM media were supplemented with 10% fetal bovine serum (FBS) and with 3 μg/mL blasticidin (ant-bl-05, InvivoGen, San Diego, CA, USA) to preserve the selection of transfected CYP2C19-overexpressing HepG2 cells.
(§4) Aliquots of 10^4 CYP2C19-overexpressing HepG2 cells were seeded per well into 96-well plates. Cells were treated with different concentrations of the selected compounds with a range from 0.003 to 100 µM in a total volume of 200 µL for 72 h. Successively, 20 µL/well of resazurin 0.01% w/v (Sigma Aldrich, Taufkirchen, Germany) was added. The fluorescence intensity was measured with an Infinite M200 Pro-plate reader (Tecan, Crailsheim, Germany). Dose–response curves were engendered for three independent experiments for each compound, and 50% inhibition concentrations (IC50) were calculated. The analysis was represented using the […] GraphPad Software (version 9.5.1) (La Jolla, CA, USA).

[1] = tested on: CYP2C19-overexpressing HepG2 cells; format: cell-based
Protocol: Figure 8 Flow cytometric cell cycle analysis of cytochrome CYP2C19-overexpressing HepG2 cells treated with IC50 concentrations of compounds 4 and 6. The data are represented as mean and SD of three independent experiments. (* p < 0.05, ** p < 0.01, compared to DMSO-treated cells).
CYP2C19-overexpressing HepG2 cells were treated with IC50 concentrations of compounds 4 and 6 for 24 h. Then, the cells were fixed using 80% cold ethanol and stored overnight at −20 °C. Successively, the cells were washed twice with PBS and resuspended in 1 mL of cold PBS containing 1mg/mL RNaseA (Sigma-Aldrich, Taufkirchen, Germany) and 50 μg/mL PI (Sigma-Aldrich, Taufkirchen, Germany). After 15 min of incubation, the measurements were performed using a BD LSRFortessa™ Cell Analyzer (Becton-Dickinson, Heidelberg, Germany). DMSO-treated cells were used as a negative control.

[2] = tested on: CYP2C19-overexpressing HepG2 cells; experiment: RNA sequencing with pathway enrichment analysis; format: cell-based; conditions: for genes of 'cholesterol biosynthetic process' influenced by only one compound: Venn diagram of compounds 4-6, vs DMSO; for genes of 'DNA replication' pathway exclusively influenced by the compound: Venn diagram of compounds 4 and 6, vs DMSO
Protocol: Functional enrichment analysis with clusterProfiler was executed using the gene ontology biological process annotation. Finally, with the GeneTonic software (version 2.4.0), a visual summary of the influenced pathways, from here on referred to as 'enriched pathways', was created. […] The size of the dots corresponds to the number of genes in the reference gene set. […] Control cells were treated with 0.2% DMSO. After 24 h of incubation, the cells were harvested. RNA extraction was performed with an […] RNA Mini Kit (Invitek Molecular GmbH, Berlin, Germany) according to the manufacturer's instructions. The cell pellet was lysed with 350 μL of Lysis Solution and treated with β-mercaptoethanol. After DNA removal, 350 μL of 70% ethanol was added, and the sample was applied onto the RNA-RTA spin filter. After several washing steps, RNA was eluted with 60 μL of Elution Buffer R, and the concentration and purity were measured with NanoDrop. RNA sequencing was performed by […] GmbH, Mainz, Germany. The quality of the extracted RNA was verified by the company with a 2100 Bioanalyzer system (Agilent Technologies, Santa Clara, CA, USA). After mRNA isolation and library preparation using a NEBNext^© UltraTM II Directional RNA Library Prep Kit (New England Biolabs, Ipswich, MA, USA), RNA sequencing of around 25 Mio PE reads (2 × 12.5 M reads, 2 × 150 nt) was performed with an Illumina NextSeq 2000TM system. Each treatment and control group included two replicates. The FastQC tool (0.12.0, https://www.bioinformatics.babraham.ac.uk/projects/fastqc/) (accessed 15 February 2023) was used for quality control on the sequencing data. Transcript abundance estimates were computed with Salmon (version 1.5.0) with a transcriptome index generated by GENCODE (version 38) and then summarized to the gene level with the […] package (version 1.16.0). Exploration, modelling, and interpretation of the expression data followed the protocols defined by Ludt et al. […] Exploratory data analysis was performed with the pcaExplorer package (version 2.24.0). […] Accurate estimation of the effect sizes (described as log2-fold changes) was performed using the […] shrinkage estimator (version 1.20.0). Further analyses included gene ontology pathway enrichment by topGO (version 2.50.0) using all expressed genes as a background dataset and the ideal package (version 1.22.0) and by clusterProfiler (version 4.6.0) with default settings and the log2-fold change as the input.

[3] = tested on: CYP2C19-overexpressing HepG2 cells; experiment: Resazurin reduction assay (growth inhibition / cytotoxicity); conditions: CYP2C19-overexpressing HepG2 cells, 0.003 to 100 μM, 72 h
Protocol: as §1, §2, §3, §4

[4] = IC50 concentration, 24 h, vs DMSO

For `Cc1cc(Cc2cc(C)cc(C3CCCCC3)c2O)c(O)c(C2CCCCC2)c1` [compound 6, 2,2′-methylene bis(6-cyclohexyl-4-methylphenol)], the IC50 at 72 h (in vitro) was 20.16 ± 0.06 µM, the G0/G1 population [1] was 72.30 ± 1.68% and the “percentage change in the sub-G0 and G2/M phases” value [1] was “No significant percentage change”. The “percentage of S-phase cells” value [1] was 6.76 ± 3.28%, the “angiogenesis-related pathways 'vasculature development', 'blood vessel morphogenesis', 'blood vessel development'” value [2, 4] was “activated” and the “mitosis-related pathways ('mitotic sister chromatid segregation', 'sister chromatid segregation', 'regulation of mitotic sister chromatid separation', 'chromosome organization')” value [2, 4] was “suppressed”. For the same compound, the “pathway 'DNA replication'” value [2, 4] was “suppressed”, the “pathway 'inflammatory response'” value [2, 4] was “activated” and the “pathway 'response to nutrients levels'” value [2, 4] was “activated”. For the same compound, the “pathways 'nuclear chromosome segregation', 'mitotic nuclear division', 'chromosome segregation'” value [2, 4] was “down-regulated”, the “genes of 'cholesterol biosynthetic process' influenced by only one compound” value (“genes … by only one compound” below) [2] was “one” and the “genes of 'DNA replication' pathway exclusively influenced by the compound” value [2] was “nine”.

For `CC(C)COC(=O)c1ccccc1C(=O)OCC(C)C` [compound 2, diisobutyl phthalate], the cytotoxic effect [3] was “did not exhibit any cytotoxic effect” and the IC50 at 72 h (in vitro) was > 100 µM.

For `O=C(OC1CCCCC1)c1ccccc1C(=O)OC1CCCCC1` [compound 1, dicyclohexyl phthalate], the IC50 at 72 h (in vitro) was 88 ± 7.77 µM.

Compound `CC(C)(C)CC(C)(C)c1ccc(O)c(-n2nc3ccccc3n2)c1` [compound 3, octrizole] has an IC50 at 72 h (in vitro) of 67.5 ± 2.05 µM.

In the case of `Cc1cc(Cc2cc(C)cc(C(C)(C)C)c2O)c(O)c(C(C)(C)C)c1` [compound 4, 2,2′-methylene bis(6-tert-butyl-4-methylphenol)], the IC50 at 72 h (in vitro) is reported as 18.6 ± 0.94 µM, the G0/G1 population [1] is reported as 74.11 ± 1.98% and the “percentage change in the sub-G0 and G2/M phases” value [1] is reported as “No significant percentage change”. For the same compound, the “percentage of S-phase cells” value [1] was 8.05 ± 1.92%, the “cell death mechanisms 'autophagy' and 'process utilizing autophagic mechanism'” value [2, 4] was “activated” and the “mitosis-related pathways ('mitotic sister chromatid segregation', 'sister chromatid segregation', 'regulation of mitotic sister chromatid separation', 'chromosome organization')” value [2, 4] was “suppressed”. The “pathway 'DNA replication'” value [2, 4] was “suppressed”, the “pathway 'DNA-templated DNA replication'” value [2, 4] was “suppressed” and the “pathway 'metaphase/anaphase transition of mitotic cell cycle'” value [2, 4] was “suppressed”. The “pathways 'cholesterol metabolic process' and 'sterol metabolic process'” value [2, 4] was “suppressed”, the “pathways 'cytokine production' and 'regulation of cytokine production'” value [2, 4] was “activated” and the “genes … by only one compound” value [2] was “two”. The “genes of 'DNA replication' pathway exclusively influenced by the compound” value [2] was “Forty-one” and the “affected genes related to 'regulation of cytokine production'” value ([2]; vs DMSO) was 82 genes.

For `CC(c1cc(C(C)(C)C)cc(C(C)(C)C)c1O)c1cc(C(C)(C)C)cc(C(C)(C)C)c1O` [compound 5, 1,1-bis(3,5-di-tert-butyl-2-hydroxyphenyl)ethane], the IC50 at 72 h (in vitro) was 18.1 ± 0.68 µM, the “cell death mechanisms 'autophagy' and 'process utilizing autophagic mechanism'” value [2, 4] was “activated” and the “pathways 'cholesterol metabolic process' and 'sterol metabolic process'” value [2, 4] was “suppressed”. The “pathways 'cytokine production' and 'regulation of cytokine production'” value [2, 4] was “activated”, the “pathways 'steroid biosynthetic process', 'alcohol biosynthetic pathway', 'alcohol metabolic process', 'organic hydroxy compound metabolic process'” value [2, 4] was “suppressed” and the “genes … by only one compound” value [2] was “three”. The “affected genes related to 'regulation of cytokine production'” value ([2]; vs DMSO) was 80 genes.
